Results published in US5942641A, “Fluorenone derivatives, process for preparing the same and central or peripheral nerve degeneration repair and protective agent” (Otsuka Pharmaceutical Co., Ltd., priority 1993, dated 1999).

Tests used:
[1] = test system: Nerve cells of the cerebral cortex; experiment: Pharmacological test 1: neurite sprouting (NS) of cultured fetal rat cerebral cortex nerve cells, phase contrast microscopy versus control; format: cell-based; parameters: key: ++: extremely strong in comparison with the control; +: strong in comparison with the control; ±: same as the control; -: inferior to the control; settings: Dose 10^-6 (mole); 10 days after initiation of culture
From the text: Nerve cells of the cerebral cortex were removed aseptically from a fetal rat (17 days-old) and cultured according to a Asou's method [Asou, H. Brain Res., 332; pages 355-357 (1985)]. After the meninx, blood vessel, etc. were removed from the cerebral hemisphere, they were put through a stainless steel mesh (pore size: 140μm). Then, the isolated cells were floated on a culture medium (Eagle's basal medium containing 10% fetal bovine serum and glucose of 1 g/l) and 1.5×10^6 cells were respectively seeded on a dish (diameter: 35 mm) coated with poly-L-lysine to initiate the culture (37° C., 3% CO2). After 24 hours, the culture medium was replaced by a culture medium containing a test compound and cultured for additional 9 days.
10 Days after initiation of the culture, neurite sprouting (NS) was evaluated under phase contrast microscopy by comparing with the control group.

[2] = test system: mouse dorsal root ganglion cells; experiment: Pharmacological Test 2: neurite outgrowth in primary culture of mouse dorsal root ganglion cells; format: cell-based, mouse (C57BL/6); parameters: key: +: positive; ±: false positive; -: negative; settings: Dose 10^-7 (mole); 7 days culture
Procedure: (The measurement of neurite outgrowth in primary culture of mouse dorsal root ganglion cells)
Preparation of cells was conducted according to a method of Horie et al. [H. Horie., FEBS, 296, 23 (1990)]. That is, C57BL/6 male mice aged 10 to 15 weeks were used. They were bleeded to death under ether anesthetization and the backbone from cervical vertebra to sacral vertebra was removed. The capsule of dorsal root ganglion of which ventral root and dorsal root had been cut was stripped in a Ham F12 medium (Flow laboratories) and then ganglia were treated with 0.25% collagenase (Worthington Biochemical Corporation) at 37° C. for 90 minutes. The medium was replaced by a Hank's physiological buffer solution containing no calcium and magnesium and cells were treated with 0.25% trypsin (Flow Laboratories) at room temperature for 20 minutes. A trypsin inhibitor (Sigma, 100 μg/ml) was added to terminate the enzyme reaction and trituration was conducted 20 times using a tapered Pasteur pipette. The medium was replaced again by the Ham F12 medium and cells were put through a nylon mesh (150 μm) to remove a cell mass which had not been separated. Cells were suspended in the Ham F12 medium containing a N1 additive [Bottenstein, J. E., Exp. Cell. Res., 125, 183 (1980)] (kanamycin of 60 μg/ml added).
A poly-1-lysine-coating cell disc as a culture medium which had been subjected to 10 μg/ml laminin (Koken Cell Gen) coating treatment at 37° C. for 3 hours was placed on a 24 well dish and nerve cells (5000 to 10000 cells/dish) were seeded. The test compound (concentration: 0.01 mol/l) was dissolved in dimethyl sulfoxide and diluted with a phosphate buffer solution to adjust to a final concentration, and then added to a culture solution. Cells were cultured in 5% CO2 -95% air phase at 37° C. for 7 days.
For the measurement of neurite outgrowth, the cell disc was washed with a phosphate buffer solution 7 days after initiation of the culture and immobilized with 4% paraformaldehyde at 4° C. for 24 hours, and then immune staining was conducted with Vecstatin ABC kit (Vector) using a neurofilament antibody (200 kD, manufactured by Boehringer Mannheim GmbH). The periphery of the cell disc was restrictively observed under microscopy, and the amount of neurofilament (whole length per well) was evaluated by comparing with the control well according to the following criteria: positive (+), false positive (±) and negative (-).

[3] = test system: hyperoxidation reaction of lipid (microsome fraction); experiment: Pharmacological test 3: antioxidation action, hyperoxidation reaction of lipid due to ascorbic acid induction in liver microsome fraction (TBA value); format: biochemical, Wister rat; settings: 37° C., 15 minutes; 200 μM ascorbic acid, 20 μM ferrous sulfate; read-out: IC50 (antioxidation, 50% inhibition concentration)
Procedure: (The measurement of antioxidation action)
The antioxidation action was measured using the hyperoxidation reaction of lipid due to ascorbic acid induction [Shimada, O. and Yasuda, H. BBA489, 163-172 (1977)].
Microsome fraction was obtained from a lever of Wister rat by a Kato's method [J. Biochem., 59, 574 (1966)]. This fraction was added to a 60 mM potassium phosphate buffer solution (containing 45 mM potassium chloride, 200 μM ascorbic acid and 20 μM ferrous sulfate) in an amount of 1 mg/ml and the test compound (0.1% dimethyl sulfoxide) was added, and the mixture was incubated at 37° C. for 15 minutes. The same amount of 10% trichloroacetic acid was added and the resultant was centrifuged. A portion of the supernatant was collected and the amount of malondialdehyde due to thiobarbituric acid (TBA value) was measured [Klaassen, C. D. and Plaa, G. L. Biochem. Pharmacol., 18: 2019 (1969)]. The inhibition ratio was calculated by the following formula:
Inhibition ratio={1-(TBA value of specimen)/(TBA value of […]

C-GMP-PDE (type V) = molecular target: T1, C-GMP-PDE (type V) (Homo sapiens, UniProt O76074); experiment: Pharmacological test 4: C-GMP-PDE (type V) inhibition action; format: biochemical; settings: FI fraction from human blood platelet
T1 construct: from tissue; host or cells: human blood platelets (healthy adult), DEAE-cellulose fraction FI
Procedure: (C-GMP-PDE (type V) inhibition action)
The separation and purification of PDE from a human blood platelet was conducted according to a method of Hidaka et al. [Hidaka, H. and Asano, I., Biochem. Biophys. Acta 429, 485-497 (1976)]. That is, a blood platelet derived from a healthy adult was washed with water, floated with a Tris buffer solution and centrifuged. Then, the supernatant thereof was applied to DEAE-cellulose and separated into three fractions, FI, FII and FIII due to concentration gradient of sodium acetate. By using FI having high affinity to C-GMP, the inhibition action of the test compound was examined. The influence of the drug on PDE was represented by the inhibition ratio to PDE activity in the absence of the drug.

IC50 [3] [nM] | IC50 (C-GMP-PDE (type V)) [nM] | Compound | neurite sprouting (NS) [1] | Neurite outgrowth action [2]
200 | 3400 | C=CCc1cc2c(cc1O)C(=O)c1c-2ccc(O)c1CC=C [Example 47, 1,6-Diallyl-2,7-dihydroxyfluorenone] | + | +
2100 | 2200 | C=CCc1cc2c(cc1O)C(=O)c1cc(O)c(CC=C)cc1-2 [Example 49] | + | +
